Experimental data from patent US11921308B2, “Polarizer and image display device” (FUJIFILM Corporation, priority 2018, dated 2024).

What was measured:
[1] = maximum absorption wavelength of the dichroic material from ultraviolet visible spectrum in solution; assay type: physicochemical; conditions: solution in a good solvent, 380 to 800 nm
Excerpt: Here, the maximum absorption wavelength (nm) of the dichroic material is acquired from an ultraviolet visible spectrum in a wavelength range of 380 to 800 nm measured by a spectrophotometer using a solution prepared by dissolving the dichroic material in a good solvent.

[2] = compatibility between liquid crystal compound and dichroic material (phase separation observed on hot stage under polarizing microscope); assay type: physicochemical; design: key: Compatible: in a case where phase separation is not observed, it is defined as “compatible”; Incompatible: in a case where phase separation is observed, it is defined as “incompatible”; conditions: for First dichroic material Compatible or incompatible: with the liquid crystal compound of the same composition; for Second dichroic material Compatible or incompatible: with the liquid crystal compound of the same composition (same example)
Excerpt: Here, the compatibility between the liquid crystal compound and the dichroic material can be confirmed by the following method.
First, two polarizers of an optical microscope (ECLIPSE E600 POL, manufactured by Nikon Corporation) are arranged so as to be orthogonal to each other, and a sample stand is set between the two polarizers.
Next, a sample composition obtained by mixing the liquid crystal compound contained in the polarizer-forming composition and a certain kind of dichroic material at a mass ratio is cast on glass, and this glass is set on a hot stage placed on the sample stand.
Next, the phase separation state of the sample is observed by raising or lowering the temperature of the hot stage in a range of higher than or equal to a higher temperature between the melting point of the liquid crystal compound and the melting point of the dichroic material and lower than or equal to a lower temperature between the isotropic phase transition temperature of the liquid crystal compound and the isotropic phase transition temperature of the dichroic material.
In this operation, in a case where phase separation is not observed, it is defined as “compatible”. Further, in a case where phase separation is observed, it is defined as “incompatible”.
Further, the compatibility between the liquid crystal compound and the first dichroic material or the second dichroic material in the polarizer-forming composition was confirmed by the method described above, and the results thereof are listed in Table 1.

[3] = first listed first dichroic material
[4] = second listed first dichroic material

## C=CC(=O)OCCCCOc1ccc(N=Nc2ccc(N=Nc3ccc(N=Nc4ccc(OCCCCOC(=O)C=C)cc4)cc3C)cc2)cc1 [Example Y1]
[1]
  maximum absorption wavelength: 413 nm
[2]; [3]
  First dichroic material Compatible or incompatible: Compatible

## FC(F)(F)c1ccc(N=Nc2ccc(N=Nc3ccc(N4CCCC4)cc3)cc2)cc1 [Example M1]
[1]
  maximum absorption wavelength: 502 nm
[2]; [4]
  First dichroic material Compatible or incompatible: Compatible

## C=CC(=O)OCCCCCCCCCOc1ccc(N=Nc2cc3sc(N=Nc4ccc(N(CC)CCOC(=O)C=C)cc4)nc3s2)cc1 [Example C1]
[1]
  maximum absorption wavelength: 592 nm
[2]
  Second dichroic material Compatible or incompatible: Incompatible

## CCCCc1ccc(N=Nc2ccc(N=Nc3ccc(N(CC)CCC#N)cc3)cc2)cc1 [Example M2]
[1]
  maximum absorption wavelength: 457 nm
[2]; [4]
  First dichroic material Compatible or incompatible: Compatible

## C=CC(=O)CCCN(CC)c1ccc(N=Nc2ccc(N=Nc3ccc(CCCC)cc3)cc2)cc1 [Example M3]
[1]
  maximum absorption wavelength: 442 nm
[2]; [4]
  First dichroic material Compatible or incompatible: Compatible

## C=CC(=O)CC(C)OC(=O)CCC(=O)OCCc1ccc(N=Nc2cc3sc(NC(=O)c4ccc(CCCC)cc4)nc3s2)cc1 (stereo not drawn) [Example Y8]
[1]
  maximum absorption wavelength: 430 nm
[2]; [3]
  First dichroic material Compatible or incompatible: Compatible

## C=CC(=O)OCCCCOc1ccc(N=Nc2ccc(N=Nc3ccc(N=Nc4ccc(OCCCCOC(=O)C=C)cc4O)cc3)c(C)c2)cc1 [Example Y2]
[1]
  maximum absorption wavelength: 445 nm
[2]; [3]
  First dichroic material Compatible or incompatible: Compatible

## C=CC(=O)OCCCCCCOc1ccc(N=Nc2ccc(N=Nc3ccc(N=Nc4ccc(OCCCCCCOC(=O)C=C)cc4)cc3C)cc2)cc1 [Example Y5]
[1]
  maximum absorption wavelength: 413 nm
[2]; [3]
  First dichroic material Compatible or incompatible: Compatible

## C=CC(=O)OCCCCCCCCCCOc1ccc(N=Nc2cc3sc(N=Nc4ccc(N(CC)CCOC(=O)C=C)cc4)nc3s2)cc1 [Example C2]
[1]
  maximum absorption wavelength: 592 nm
[2]
  Second dichroic material Compatible or incompatible: Incompatible

## C=CC(=O)OCCN(CC)c1ccc(N=Nc2nc3sc(N=Nc4ccc(OCCCCCCOC(C)=O)cc4)cc3s2)cc1 [Example C5]
[1]
  maximum absorption wavelength: 592 nm
[2]; [3]
  First dichroic material Compatible or incompatible: Compatible
[2]; [4]
  First dichroic material Compatible or incompatible: Compatible

## C=CC(=O)OCCCCCCCCCOc1ccc(N=Nc2cc3sc(N=Nc4ccc(N(CC)CCOC(=O)C=C)cc4C)nc3s2)cc1 [Example C3]
[1]
  maximum absorption wavelength: 605 nm
[2]
  Second dichroic material Compatible or incompatible: Incompatible

## C=CC(=O)OCCCCCCCCCCCOc1ccc(N=Nc2cc3sc(NC(=O)c4ccc(CCCC)cc4)nc3s2)cc1 [Example Y7]
[1]
  maximum absorption wavelength: 443 nm
[2]
  Second dichroic material Compatible or incompatible: Incompatible

## C=CC(=O)OCCN(CC)c1ccc(N=Nc2nc3sc(N=Nc4ccc(OCCCCCCCCCOC(=O)CC)cc4)cc3s2)cc1 [Example C4]
[1]
  maximum absorption wavelength: 592 nm
[2]
  Second dichroic material Compatible or incompatible: Incompatible

## C=CC(=O)OCCCCCCCCOc1ccc(N=Nc2ccc(N=Nc3ccc(N=Nc4ccc(OCCCCCCCCOC(=O)C=C)cc4)cc3C)cc2)cc1 [Example Y6]
[1]
  maximum absorption wavelength: 413 nm
[2]; [3]
  First dichroic material Compatible or incompatible: Compatible

## C=CC(=O)OCCCCCCCCCCCCOc1ccc(N=Nc2ccc(N=Nc3ccc(N=Nc4ccc(OCCCCCCCCCCCCOC(=O)C=C)cc4O)cc3)c(C)c2)cc1 [Example Y4]
[1]
  maximum absorption wavelength: 445 nm
[2]
  Second dichroic material Compatible or incompatible: Incompatible

## C=CC(=O)OCCCCCOc1ccc(N=Nc2ccc(N=Nc3ccc(N=Nc4ccc(OCCCCCOC(=O)C=C)cc4)cc3C)cc2)cc1 [Example Y3]
[1]
  maximum absorption wavelength: 413 nm
[2]; [3]
  First dichroic material Compatible or incompatible: Compatible
